Source: article PMC11955804, “Histidine-rich enantiomeric peptide coacervates enhance antigen sequestration and presentation to T cells” (Chemical Science, 2025)

How the values were obtained:
[1] = Encapsulation efficiency measurement; format: physicochemical; details: 1 mM peptide, 1 µM eGFP in PBS; centrifuged 15,000 × g 10 min; fluorescence of supernatant (λex 395 nm, λem 510 nm)
Experimental: Encapsulation efficiency measurements […]
powders to a final peptide concentration of 1 mM. Cargo concentrations in the stock solutions […]
nm and λem: 519 nm). For small molecule dyes, similar methods were used. The encapsulation efficiency was determined as reported previously 12.
Cellular uptake and antigen presentation assays […]
to addition of OVA-loaded coacervates. Final OVA concentration was 1 µg/mL for time- […]
37°C and complete RPMI media served as controls. Soluble OVA and PBS treated cells were used as controls for antigen delivery.

[2] = test system: hiPSC-CMs; experiment: Confocal microscopy of cellular uptake in hiPSC-CMs; format: cell-based, human; details: for interaction with the cell membrane of hiPSC-CMs: confocal microscopy; for cellular uptake / localization in hiPSC-CMs: eGFP loaded coacervates (100 nM eGFP), 30 min, 37 °C, confocal
Experimental: Stem cell-derived cardiomyocytes and confocal microscopy
Wild type hiPSCs (WT iPSC 11) were received from the Genome Engineering and Stem Cell Center at Washington University School of Medicine. hiPSCs were cultured in mTeSR Plus […]
medium ([…] Technologies, USA) on 6-well plates coated with Matrigel (1:100, Corning) and grown at 37 °C with 5% CO2. Cells were grown to 80–90% confluency and then passaged as clusters using Versene (Thermo Scientific, USA) into 6-well plates for hiPSC maintenance and […]
into 24-well plates for hiPSC differentiation. Once hiPSCs reached 90% confluence, they were differentiated into cardiomyocytes using small-molecule manipulation of Wnt signaling 10. Non-cardiomyocytes were removed via lactate purification on days 20 and 22 before replating singularized hiPSC cardiomyocytes (hiPSC-CMs) at 40,000 cells per 35-mm glass-bottom dish. hiPSC-CMs were treated with enantiomeric leucine or valine coacervates loaded with eGFP protein (Novus Biologicals, Catalog number: NBP2-34923; 50 μL, final concentration of 100 nM eGFP) for 30 min at 37°C. Samples were fixed with 2% paraformaldehyde (PFA) and three PBS washes (10 min at RT). The cell membrane was stained with wheat germ agglutinin (WGA; Fisher Scientific, Catalog number: W32466; 0.25 μL/mL) conjugated to Alexa Fluor 647 (10 min at RT), followed by three PBS washes (5 minutes at RT). Confocal micrographs of singular hiPSC-CMs were acquired using a Leica Sp8 Lightning single-photon confocal microscope […]
numerical aperture oil immersion objective, two HyD GaAsP detectors, and two high-sensitivity photomultiplier tube detectors. Images were collected as z-stacks (presented as top or bottom view, and single plane) and by Nyquist sampling (or greater) as previously described 11.
All animal experiments were conducted under approved protocols by the Institutional Animal Care and Use Committee (IACUC) at Washington University in St Louis. Femoral and tibial bone marrow from C57BL/6 mice were collected and RBCs lysed using ACK buffer. The cells were plated at 5×10^6 cells per petri dish (150 mm) and differentiated for 7–9 days in complete RPMI-1640 medium (containing 10% heat-inactivated FBS), 55 µM β-mercaptoethanol, 1 mM sodium pyruvate, 10 mM HEPES, 1× MEM non-essential amino acids, 20 ng/mL GM-CSF, 10

[3] = test system: HEK293T cells; experiment: eGFP plasmid DNA transfection; format: cell-based; details: coacervates loaded with eGFP DNA plasmid 2.5 μg/mL; qualitative microscopy after 96 h
Experimental: findings were not OVA-specific.
Reserve University) 14,15.
Cytotoxicity and transfection assays
Untreated cells or ethanol treated cells served as controls. Cytotoxicity of all inhibitors was evaluated similarly. For transfection studies, […]
Biosystems, Catalog number: 4060; 2.5 μg/mL). Cells treated with the naked plasmid or […]
complexed with lipofectamine 2000 (3.2 µL) served as controls. GFP expression was assessed qualitatively after 96 h using a Lionheart FX automated microscope (BioTek Instruments, Inc.).
We employed TrueCut Cas9 protein for the knockout of CD55 gene using CRISPR technology, aided with chiral (GHGXY)4 peptide coacervates. The transfection of the Cas9 RNPs (protein + gRNA) was done according to manufacturer’s protocol (Invitrogen). Briefly, A549 cells were cultured in complete DMEM media (supplemented with 10% FBS and 5% Pen Strep) in T-75 flask till full confluency. Cells were then plated at a concentration of 2×10^4 cells/mL in 24 well […]
plates in DMEM media for 24 h. […]
confluent. For positive control, we mixed the TrueCutTM Cas9 protein/sgRNA in Opti-MEM media (17.8 μL) at a concentration of 12.50 μg (75 pmol; Stock 0.5 mg/mL) and 2.4 μg (75 pmol; Stock 1 nmol) for protein and sgRNA respectively, containing 50 μL LipofectamineTM Cas 9 PlusTM reagent (Total Volume: 100 μL) in a RNAse -free microcentrifuge tube. […]

[4] = Dynamic light scattering (DLS) droplet size; format: physicochemical; details: 1 mM peptide, 1× PBS, pH 7.4; mean of 3 measurements with 14 scans each; identical for each pair of enantiomers
Experimental: Optical microscopy and dynamic light scattering (DLS) […]
Coacervate size was measured using 1 mM
peptide solutions (1×PBS, pH 7.4) on a ZEN 3600 Zetasizer (Malvern Instruments, UK) using
DLS-Zen 0040 specialized cuvettes. The results were reported as the means of three
measurements, with 14 scans for each measurement. […]

eGFP loading efficiency [1]	droplet size (DLS) [4]	Substance	interaction with the cell membrane of hiPSC-CMs [2]	cellular uptake / localization in hiPSC-CMs [2]	eGFP expression after plasmid delivery [3]
~90%	~1.8 μm	(GHGLY)4 [GL 20]	interacted with and traversed the cell membrane	confirmed their localization within the cells	robust eGFP expression
~75%	~1.0 μm	(GHGVY)4 [GV 20]	this behavior was not observed	confirmed their localization within the cells	Poor eGFP expression
